Results reported in patent publication US20230078764A1 (Yumanity Therapeutics, Inc., priority 2019, published 2023).

How the values were obtained:
[1] = target: T1, human SCD1 (Homo sapiens, UniProt O00767); assay: Growth inhibition of yeast strain expressing human SCD1 as sole desaturase (OLE1 deleted), OD600 readout; type: cell-based; settings: yeast strain expressing human SCD1 as sole desaturase; growth (OD600) after 40 h at 30° C.; read-out: SCD1 IC50
T1 construct: expressed in transfected cells; host or cells: yeast strain with OLE1 deleted, plasmid-borne human SCD1 (selected in SD-Ura)
T1 sequence (O00767 1-359): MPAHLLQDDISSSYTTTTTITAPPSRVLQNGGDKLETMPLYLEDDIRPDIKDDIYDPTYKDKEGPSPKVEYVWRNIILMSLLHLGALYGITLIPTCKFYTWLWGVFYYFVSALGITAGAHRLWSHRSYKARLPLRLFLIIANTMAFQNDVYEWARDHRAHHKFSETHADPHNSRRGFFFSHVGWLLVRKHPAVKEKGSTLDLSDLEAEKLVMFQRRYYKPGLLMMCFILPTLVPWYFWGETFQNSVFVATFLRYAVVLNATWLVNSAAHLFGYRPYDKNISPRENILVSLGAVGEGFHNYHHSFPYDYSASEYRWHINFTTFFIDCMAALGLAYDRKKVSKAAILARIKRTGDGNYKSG

[2] = target: T2, human SCD5 (Homo sapiens, UniProt Q86SK9); assay: Growth inhibition of yeast strain expressing human SCD5 as sole desaturase (OLE1 deleted), OD600 readout; type: cell-based; settings: yeast strain expressing human SCD5 as sole desaturase; growth (OD600) after 40 h at 30° C.; read-out: SCD5 IC50
T2 construct: expressed in transfected cells; host or cells: yeast strain with OLE1 deleted, plasmid-borne human SCD5 (selected in SD-Ura)
T2 sequence (Q86SK9 1-330): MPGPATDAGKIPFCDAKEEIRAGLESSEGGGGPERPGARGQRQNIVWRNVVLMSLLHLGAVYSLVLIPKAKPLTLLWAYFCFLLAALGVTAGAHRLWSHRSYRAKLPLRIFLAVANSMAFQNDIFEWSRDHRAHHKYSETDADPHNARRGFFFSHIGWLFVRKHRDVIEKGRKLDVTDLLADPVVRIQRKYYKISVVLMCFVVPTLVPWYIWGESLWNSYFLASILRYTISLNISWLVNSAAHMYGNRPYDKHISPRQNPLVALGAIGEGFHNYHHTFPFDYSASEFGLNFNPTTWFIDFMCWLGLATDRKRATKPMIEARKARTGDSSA

Row | Compound | IC50 [1] [µM] | IC50 [2] [µM]
1 | COc1cc(Cc2cccc(Cl)c2)cnc1NC(=O)C1=NN(C)C(=O)CC1 [Compound 387] | > 45 | > 45
2 | CN1N=C(C(=O)Nc2cnc(Cc3cccc(F)c3)s2)CCC1=O [Compound 388] | 17.6 | > 45
3 | Cn1nc(C(=O)Nc2ncc(Cc3cccc(C#N)c3)s2)ccc1=O [Compound 389] | > 45 | > 45
4 | CN1N=C(C(=O)Nc2ncc(Cc3ccc4ccccc4n3)s2)CCC1=O [Compound 390] | > 45 | > 45
5 | CS(=O)(=O)c1cccc(C(=O)Nc2ccc(Cc3cccc(F)c3)cn2)c1 [Compound 391] | 1.24 | > 45
6 | CN1N=C(C(=O)Nc2ccc(Cc3ccc(C4CC4)nc3)cn2)CCC1=O [Compound 392] | > 45 | > 45
7 | O=C(Nc1ccc(Cc2cccc(Cl)c2)cn1)N1CCC2(CC1)COC2 [Compound 393] | > 45 | > 45
8 | CC(=O)Nc1ccc(/C=C/c2cccc(Cl)c2)nn1 [Compound 394] | > 45 | > 45
9 | CC(C)Cc1ccc(NC(=O)c2ccc(=O)n(C)n2)nn1 [Compound 395] | > 45 | > 45
10 | CN1N=C(C(=O)Nc2ccc(COC3(C)CC3)cn2)CCC1=O [Compound 396] | > 45 | > 45
11 | CN1N=C(CNc2ccc(Cc3cccc(F)c3)cn2)CCC1=O [Compound 397] | > 45 | > 45
12 | CN1N=C(C(=O)Nc2ncc(Cc3cccnc3)s2)CCC1=O [Compound 398] | > 45 | > 45
13 | CN1N=C(C(=O)Nc2ncc(Cc3cccc(F)c3)o2)CCC1=O [Compound 399] | > 45 | > 45
14 | CN1C(=O)CCC1C(=O)Nc1ncc(Cc2cccc(F)c2)s1 (stereo not drawn) [Compound 400] | > 45 | > 45
15 | CN1N=C(C(=O)Nc2ccc(Cc3cccc(F)c3)nc2)CCC1=O [Compound 401] | > 45 | > 45
16 | Cc1cnc(Cc2ccc(NC(=O)C3=NN(C)C(=O)CC3)nc2)s1 [Compound 402] | > 45 | > 45
17 | CC(=O)C1CN(C(=O)Nc2ccc(Cc3cccc(Cl)c3)cn2)C1 [Compound 403] | > 45 | > 45

Row | Compound | IC50 [1] [µM] | IC50 [2] [µM]
18 | COc1ccc(C(=O)Nc2ncc(Cc3cccc(F)c3)s2)nn1 [Compound 404] | > 45 | > 45
19 | CN1N=C(C(=O)Nc2cnn(Cc3cccc(Cl)c3)c2)CCC1=O [Compound 405] | > 45 | > 45
20 | CN1N=C(C(=O)Nc2nc(Cc3cccc(F)c3)cs2)CCC1=O [Compound 406] | > 45 | > 45
21 | CN1N=C(C(=O)Nc2nnc(Cc3cccc(Cl)c3)[nH]2)CCC1=O [Compound 407] | > 45 | > 45
22 | CN1N=C(C(=O)Nc2nc(Cc3cccc(F)c3)ns2)CCC1=O [Compound 408] | > 45 | > 45
23 | CN1N=C(C(=O)Nc2nnc(Cc3cccc(Cl)c3)o2)CCC1=O [Compound 409] | > 45 | > 45
24 | CCn1cc(C(=O)Nc2ccc(Cc3cccc(F)c3)nn2)ccc1=O [Compound 410] | > 45 | > 45
25 | Cn1nc(C(=O)NCc2ccc(Cc3cccc(F)c3)cn2)ccc1=O [Compound 411] | > 45 | > 45
26 | CN1N=C(C(=O)Nc2ccc(CN3CCC(C)(C)CC3)cn2)CCC1=O [Compound 412] | > 45 | > 45
27 | CN1N=C(C(=O)Nc2ncc(C(=O)c3cccc(F)c3)s2)CCC1=O [Compound 413] | > 45 | > 45
28 | CCN1N=C(C(=O)Nc2ncc(Cc3cccc(F)c3)s2)CCC1=O [Compound 414] | 25 | > 45
29 | O=C(Nc1ccc(Cc2cccc(Cl)c2)cn1)c1ccc2nccn2n1 [Compound 415] | > 45 | > 45
30 | CN1N=C(C(=O)Nc2ncc(Oc3ccccc3Cl)s2)CCC1=O [Compound 416] | > 45 | > 45
31 | O=C(Nc1ccc(Cc2cccc(F)c2)cn1)c1ccc(F)c(Cl)n1 [Compound 417] | > 45 | > 45
32 | CN1N=C(C(=O)Nc2ncc(C(C)(O)c3cccc(F)c3)s2)CCC1=O (stereo not drawn) [Compound 419] | > 45 | > 45
33 | O=C(Nc1ncc(Cc2cccc(F)c2)s1)C1=NN(CCO)C(=O)CC1 [Compound 420] | > 45 | > 45
